The text below walks through data of PubChem BioAssay (NCI).

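1) Cells in 96-well plates. 2) Compound, 48 h, 5 concentrations. 3) Linear interpolation between surrounding doses. 4) Unreached endpoint = highest concentration. TGI: concentration producing complete growth inhibition.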

Test systems include A549 NSCLC; DMS 114 small cell lung; DMS 273 small cell lung; HOP-92 NSCLC; LXFL 529 NSCLC; M19-MEL melanoma; NCI-H23 lung; OVCAR-8 ovarian; RPMI-8226 leukemia; RXF 393 renal; UO-31 renal; MDA-MB-231 breast.
Common to all, as to assay: NCI tumour cell line growth inhibition, 48 h

With `COc1ccc2oc(C(=O)O)c3c2c1CCC3CCC(=O)O` (configuration not stated), the TGI in the experiment with A549 NSCLC, in the experiment with DMS 114 small cell lung, with DMS 273 small cell lung, in the experiment on HOP-92 NSCLC, with LXFL 529 NSCLC and with M19-MEL melanoma was over 100 µM throughout. Moreover, the TGI in the experiment with NCI-H23 lung, in the experiment on OVCAR-8 ovarian, in the experiment on RPMI-8226 leukemia, in the experiment with RXF 393 renal and in the experiment with UO-31 renal was over 100 µM in each case.
`CCCCCCCCCC(=O)OCC1OC(n2cc(F)c(=O)[nH]c2=O)C(NC(=O)OCc2ccccc2)C(OC(=O)CCCCCCCCC)C1O` (configuration not stated): the TGI in the experiment on A549 NSCLC was over 100 µM; in the experiment with DMS 114 small cell lung it was 49.1 µM; with DMS 273 small cell lung, over 100 µM; in the experiment on HOP-92 NSCLC, 36.3 µM; in the experiment on LXFL 529 NSCLC, over 100 µM; with M19-MEL melanoma it was over 100 µM. In addition, the TGI with NCI-H23 lung was 62 µM; in the experiment on OVCAR-8 ovarian, 80.1 µM; in the experiment with RPMI-8226 leukemia, 65.2 µM; with RXF 393 renal, 44 µM; in the experiment on UO-31 renal it was over 100 µM.
In the case of `COc1ccc(/C=C2\CCC(CCN(C)C)(C3=CCCC3)C2=O)cc1Br` (configuration not stated), the TGI stood at 24 µM with A549 NSCLC; 14.9 µM with DMS 114 small cell lung; 14.6 µM in the experiment on DMS 273 small cell lung; 11.3 µM with HOP-92 NSCLC; 15.8 µM in the experiment on LXFL 529 NSCLC; 7.86 µM in the experiment on M19-MEL melanoma. In addition, the TGI in the experiment on NCI-H23 lung worked out at 29 µM; in the experiment on OVCAR-8 ovarian, 21.9 µM; in the experiment on RPMI-8226 leukemia it was 5.5 µM; in the experiment with RXF 393 renal, 6.99 µM; in the experiment on UO-31 renal, 17.6 µM.
For `C=C1CC2CC(O)CC(C1)C2` (configuration not stated), the TGI in the experiment on A549 NSCLC, in the experiment on DMS 114 small cell lung, in the experiment with DMS 273 small cell lung, in the experiment with HOP-92 NSCLC, with LXFL 529 NSCLC and with M19-MEL melanoma was over 100 µM throughout. The TGI with NCI-H23 lung, in the experiment on OVCAR-8 ovarian, in the experiment on RPMI-8226 leukemia, in the experiment on RXF 393 renal and with UO-31 renal was over 100 µM throughout.
`Cc1ccc(C(=O)/C=C/c2cccc([N+](=O)[O-])c2)cc1`: the TGI is over 100 µM in the experiment on A549 NSCLC; over 80.9 µM in the experiment on DMS 114 small cell lung; over 100 µM with DMS 273 small cell lung; over 100 µM with HOP-92 NSCLC; over 100 µM in the experiment on LXFL 529 NSCLC; over 62.3 µM in the experiment with M19-MEL melanoma. Also, the TGI was over 100 µM in the experiment with NCI-H23 lung; over 100 µM in the experiment with OVCAR-8 ovarian; over 78.8 µM with RPMI-8226 leukemia; over 74.8 µM in the experiment on RXF 393 renal; over 100 µM with UO-31 renal.
On to `CCCCNC(=O)C1C2CCC(O2)C1C(=O)O` (configuration not stated), for which the TGI in the experiment with A549 NSCLC was over 100 µM; with DMS 114 small cell lung, 28.2 µM; in the experiment on DMS 273 small cell lung it was over 100 µM; in the experiment with HOP-92 NSCLC, 39 µM; in the experiment on LXFL 529 NSCLC it was 34.6 µM; in the experiment with M19-MEL melanoma, 41.4 µM. Also, the TGI was over 100 µM with NCI-H23 lung; 43.3 µM in the experiment with OVCAR-8 ovarian; 42 µM with RPMI-8226 leukemia; 8.44 µM in the experiment with RXF 393 renal; over 100 µM with UO-31 renal.
On to `CC(=O)O[C@@]1(C)[C@@H](C)C(=O)O[C@@H]2CCN3CC=C(COC(=O)[C@]1(C)O)[C@H]23`, for which the TGI in the experiment on A549 NSCLC, in the experiment on DMS 114 small cell lung, with DMS 273 small cell lung, with HOP-92 NSCLC, in the experiment on LXFL 529 NSCLC and in the experiment on M19-MEL melanoma was over 100 µM each time. The TGI in the experiment with NCI-H23 lung, with OVCAR-8 ovarian, in the experiment on RPMI-8226 leukemia and in the experiment with UO-31 renal was over 100 µM throughout.
For `O=C(N/N=C1\C(=O)N(c2nccs2)C(=O)C(=O)C1c1nc2ccccc2s1)c1ccccc1O` (configuration not stated), the TGI in the experiment with A549 NSCLC, in the experiment on DMS 114 small cell lung, in the experiment with DMS 273 small cell lung, with HOP-92 NSCLC, in the experiment with LXFL 529 NSCLC and in the experiment with M19-MEL melanoma was over 100 µM throughout. Also, the TGI was over 100 µM in the experiment with NCI-H23 lung; over 100 µM with OVCAR-8 ovarian; over 100 µM in the experiment on RPMI-8226 leukemia; over 100 µM with RXF 393 renal; 35.4 µM in the experiment with UO-31 renal.
On to `C/C=C(\CCOS(=O)(=O)c1ccc(C)cc1)[Si](C)(C)C`, for which the TGI in the experiment with A549 NSCLC, with DMS 114 small cell lung, with DMS 273 small cell lung, in the experiment with HOP-92 NSCLC, with LXFL 529 NSCLC and in the experiment with M19-MEL melanoma was over 100 µM throughout. Also, the TGI in the experiment on NCI-H23 lung, with OVCAR-8 ovarian, in the experiment with RPMI-8226 leukemia, with RXF 393 renal and in the experiment on UO-31 renal was over 100 µM each time.
For `Nc1n[n+](-c2ccccc2)no1`, the TGI is over 100 µM with A549 NSCLC; 89.8 µM with DMS 114 small cell lung; over 100 µM in the experiment on DMS 273 small cell lung; 92.9 µM with HOP-92 NSCLC; over 100 µM in the experiment with LXFL 529 NSCLC; over 100 µM with M19-MEL melanoma. In addition, the TGI with NCI-H23 lung, in the experiment on OVCAR-8 ovarian, with RPMI-8226 leukemia and with UO-31 renal was over 100 µM throughout.
As for `CC1=C(/C=C/C(C)=C/C=C/C(C)=C/C(=O)O)C(C)(C)CCC1`, the TGI with A549 NSCLC is over 79.4 µM; in the experiment on DMS 114 small cell lung, over 100 µM; in the experiment with DMS 273 small cell lung, over 100 µM; with HOP-92 NSCLC it was over 83.4 µM; with LXFL 529 NSCLC it was over 100 µM; in the experiment on M19-MEL melanoma, over 100 µM. The TGI in the experiment with MDA-MB-231 breast is 99.6 µM; in the experiment on NCI-H23 lung, 79.3 µM; in the experiment on OVCAR-8 ovarian it was over 77.9 µM; in the experiment with RPMI-8226 leukemia it was 57.7 µM; in the experiment on RXF 393 renal, over 81.5 µM; in the experiment with UO-31 renal, over 74.7 µM.
With `O=C(CC(=O)c1cccc2ccccc12)C(=O)NC1C2CC3CC(C2)CC1C3` (configuration not stated), the TGI in the experiment on A549 NSCLC, in the experiment with DMS 114 small cell lung, in the experiment on DMS 273 small cell lung, in the experiment with HOP-92 NSCLC, in the experiment on LXFL 529 NSCLC and with M19-MEL melanoma was over 100 µM throughout. In addition, the TGI in the experiment on NCI-H23 lung, in the experiment with OVCAR-8 ovarian, in the experiment with RPMI-8226 leukemia and with UO-31 renal was over 100 µM each time.
As to `C=C1C(OC(=O)/C=C/c2ccccc2)CC(OC(C)=O)C2(C)C1CC1CC(OC(C)=O)C(C)=C(C(OC(C)=O)C2OC(C)=O)C1(C)C` (configuration not stated), the TGI in the experiment with A549 NSCLC, with DMS 114 small cell lung, in the experiment on DMS 273 small cell lung, in the experiment on HOP-92 NSCLC, in the experiment with LXFL 529 NSCLC and with M19-MEL melanoma was over 100 µM in each case. In addition, the TGI in the experiment with OVCAR-8 ovarian, in the experiment on RPMI-8226 leukemia and with UO-31 renal was over 100 µM throughout.
As for `O=C(O/N=C1/CCC/C1=C\c1ccccc1)c1ccc(Cl)c(Cl)c1`, the TGI with A549 NSCLC, in the experiment on DMS 114 small cell lung, with DMS 273 small cell lung, in the experiment on HOP-92 NSCLC, with LXFL 529 NSCLC and in the experiment with M19-MEL melanoma was over 100 µM in each case. The TGI in the experiment with NCI-H23 lung, with OVCAR-8 ovarian, in the experiment on RPMI-8226 leukemia, with RXF 393 renal and in the experiment on UO-31 renal was over 100 µM each time.
As for `NC1=NN(c2ccccc2)C(=O)C1C(=O)C(=O)Nc1nccs1` (configuration not stated), the TGI in the experiment on A549 NSCLC, in the experiment with DMS 114 small cell lung, with DMS 273 small cell lung, with HOP-92 NSCLC, in the experiment on LXFL 529 NSCLC and in the experiment on M19-MEL melanoma was over 100 µM throughout. In addition, the TGI in the experiment with NCI-H23 lung, in the experiment on OVCAR-8 ovarian, with RPMI-8226 leukemia, with RXF 393 renal and in the experiment on UO-31 renal was over 100 µM throughout.
For `N#CC1(C#N)C2C=CC(c3coc4cccc2c34)C1(C#N)C#N` (configuration not stated), the TGI with A549 NSCLC was 37.5 µM; in the experiment on DMS 114 small cell lung it was 9.98 µM; with DMS 273 small cell lung it was 31.6 µM; with HOP-92 NSCLC, 35 µM; in the experiment on LXFL 529 NSCLC it was 21.2 µM; in the experiment on M19-MEL melanoma, 8.86 µM. Also, the TGI with NCI-H23 lung turned out to be 36.9 µM; in the experiment with OVCAR-8 ovarian it was 10.4 µM; with RPMI-8226 leukemia it was 19.9 µM; in the experiment with RXF 393 renal, 9.66 µM; in the experiment on UO-31 renal, 25.6 µM.
